Like-named read-outs stand apart in the source and are kept apart here.
Key:
[1] = target: T1, Mouse 5-HT6 (Mus musculus, UniProt Q9R1C8); assay: 5-HT6 receptor binding assay ([3H]5-HT displacement, SPA), mouse receptor
T1 construct: expressed in transfected cells
Experimental: (§1) 5-HT6 Receptor Binding Assay
(§2) Affinity (IC50) of a compound for cloned human, rat, or mouse 5-HT6 receptor was measured by its ability to displace [^3H]5-HT using cell membranes prepared from cultured cells and scintillation proximity assay (SPA) beads that bind to cell membranes (Catalog No. RPNQ0001; GE Healthcare Life Sciences, Piscataway, N.J.). Assays were carried out in 200 μl binding buffer (50 mM Tris-HCl, pH 7.4, 5 mM MgCl2, 0.5 mM EDTA, 10 μM pargyline and 0.1% ascorbic acid) in 96-well plates. Cell membranes were re-suspended in binding buffer to final concentration of up to 0.2 mg protein/ml and mixed with reconstituted SPA beads to a final concentration of 0.25 mg/ml. To each well, […] of above mixture, 50 of cold compound (to 10^−10 to 10^−5 M final concentration) and 50 μl of [^3H]5-HT radioligand (specific activity, 100 Ci/mmol, GE Healthcare Life Sciences; final concentration, 5 nM) were added. Following 1 h incubation at room temperature, the radioactivity bound to the cell membranes was measured on a scintillation counter.

[2] = target: T2, Human 5-HT6 (Homo sapiens, UniProt P50406); assay: 5-HT6 receptor binding assay ([3H]5-HT displacement, SPA), human receptor
T2 construct: expressed in transfected cells
Experimental: as §1, §2

[3] = test system: 5-HT6 receptor expressed in CHO cells; assay: 5-HT6 receptor functional activity assay (cellular cAMP levels, CHO cells); format: cell-based, human, rat, or mouse; settings: concentration up to 10 micromolar; cAMP accumulation; species not specified
Experimental: 5-HT6 Receptor Functional Activity Assay.
The functional activation of human, rat, or mouse 5-HT6 receptor expressed in CHO cells was determined by measuring cellular cAMP levels following the exposure of the cells to a compound using the SPA cAMP Screening System (Catalog No. RPA556, GE Healthcare) in 96-well OptiPlates (Catalog No. 6005190, PerkinElmer, Boston, Mass.). Cells expressing recombinant receptors were harvested and then re-suspended at approximately 2.0×10^6 cells/ml in assay medium containing Earle's Balanced Salt Solution (EBSS, pH 7.4) supplemented with 25 mM Hepes, 5 mM MgCl2 and 0.05% BSA. Cells (50 μl, ˜10^5 cells) were transferred to wells, to give a final volume of 100 μl containing various concentrations of compounds. The plate was incubated at 37° C. for 30 min and the reaction was terminated by boiling for 3 min. The accumulation of cAMP in 15 μl lysate was measured according to manufacture's instructions.

[4] = cloned mouse 5-HT6 receptor, cell membranes, [3H]5-HT 5 nM, read-out: Mouse 5-HT6 binding IC50
[5] = cloned human 5-HT6 receptor, cell membranes, [3H]5-HT 5 nM, read-out: Human 5-HT6 binding IC50

T2 sequence (P50406 whole entry): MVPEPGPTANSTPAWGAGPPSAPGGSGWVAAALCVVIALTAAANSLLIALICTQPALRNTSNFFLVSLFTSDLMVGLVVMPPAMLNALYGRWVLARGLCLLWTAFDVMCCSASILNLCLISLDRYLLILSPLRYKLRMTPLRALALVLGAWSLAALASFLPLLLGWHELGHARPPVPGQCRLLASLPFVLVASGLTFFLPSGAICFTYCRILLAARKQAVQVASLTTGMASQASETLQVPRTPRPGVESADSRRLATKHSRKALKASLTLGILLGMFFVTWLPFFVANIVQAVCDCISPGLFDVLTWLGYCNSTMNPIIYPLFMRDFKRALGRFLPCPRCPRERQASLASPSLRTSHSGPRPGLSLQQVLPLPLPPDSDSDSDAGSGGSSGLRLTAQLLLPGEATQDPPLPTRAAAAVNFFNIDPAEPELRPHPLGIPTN
T1 sequence (Q9R1C8 whole entry): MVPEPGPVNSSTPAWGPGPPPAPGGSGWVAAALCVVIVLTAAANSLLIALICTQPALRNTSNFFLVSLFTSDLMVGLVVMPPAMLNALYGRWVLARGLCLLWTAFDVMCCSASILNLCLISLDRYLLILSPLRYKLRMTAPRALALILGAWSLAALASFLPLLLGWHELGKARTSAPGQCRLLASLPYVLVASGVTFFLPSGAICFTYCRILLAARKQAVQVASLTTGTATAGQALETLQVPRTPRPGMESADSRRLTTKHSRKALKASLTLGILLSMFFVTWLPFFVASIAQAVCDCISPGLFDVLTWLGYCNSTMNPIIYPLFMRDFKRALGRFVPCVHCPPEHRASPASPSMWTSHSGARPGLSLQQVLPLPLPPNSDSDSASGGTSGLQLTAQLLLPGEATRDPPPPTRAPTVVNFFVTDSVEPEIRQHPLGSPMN

For `Cl.O=S(=O)(c1ccccc1)n1cc(CCNCc2cccc(OCC(F)(F)C(F)F)c2)c2ccc(F)cc21` [Example 1], the IC50 [1, 4] was 2 nM, the IC50 [2, 5] was 0.2 nM and the “functional activation of 5-HT6 receptor (detectable activity)” value [3] was “did not show detectable activity”.
In the case of `O=S(=O)(c1ccc(OC(F)(F)F)cc1)n1cc(CCNCc2cccc(OCC(F)(F)C(F)F)c2)c2ccc(F)cc21` [Example 2], the IC50 [1] is reported as 211 nM and the IC50 [2] is reported as 46.4 nM.
`COc1cccc(S(=O)(=O)n2cc(CCNCc3cccc(OCC(F)(F)C(F)F)c3)c3ccc(F)cc32)c1` [Example 3] gave an IC50 [1, 4] of 170 nM and an IC50 [2, 5] of 0.593 nM.
In the case of `O=S(=O)(c1cccc(Cl)c1)n1cc(CCNCc2cccc(OCC(F)(F)C(F)F)c2)c2ccc(F)cc21` [Example 4], the IC50 [1, 4] is reported as 60.2 nM and the IC50 [2, 5] is reported as 0.805 nM.
With `O=S(=O)(c1cc(Cl)cc(Cl)c1)n1cc(CCNCc2cccc(OCC(F)(F)C(F)F)c2)c2ccc(F)cc21` [Example 5] the IC50 [1, 4] was 148 nM and the IC50 [2, 5] was 2.88 nM.
Work on `O=S(=O)(c1ccc(F)cc1)n1cc(CCNCc2cccc(OCC(F)(F)C(F)F)c2)c2ccc(F)cc21` [Example 6] yielded an IC50 [1] of 21.6 nM and an IC50 [2] of 2.88 nM.
For `O=S(=O)(c1ccc(Cl)cc1)n1cc(CCNCc2cccc(OCC(F)(F)C(F)F)c2)c2ccc(F)cc21` [Example 7], the IC50 [1, 4] was 7.27 nM and the IC50 [2, 5] was 3.4 nM.
In the case of `O=S(=O)(c1ccc(Br)cc1)n1cc(CCNCc2cccc(OCC(F)(F)C(F)F)c2)c2ccc(F)cc21` [Example 8], the IC50 [1, 4] is reported as 15.4 nM and the IC50 [2, 5] is reported as 2.05 nM.
Work on `O=S(=O)(c1ccc(F)c(Cl)c1)n1cc(CCNCc2cccc(OCC(F)(F)C(F)F)c2)c2ccc(F)cc21` [Example 9] yielded an IC50 [1, 4] of 127 nM and an IC50 [2, 5] of 8.85 nM.
`O=S(=O)(c1cccc(C(F)(F)F)c1)n1cc(CCNCc2cccc(OCC(F)(F)C(F)F)c2)c2ccc(F)cc21` [Example 10] showed an IC50 [1, 4] of 60 nM and an IC50 [2, 5] of 0.626 nM.
`O=S(=O)(c1cccc(F)c1)n1cc(CCNCc2cccc(OCC(F)(F)C(F)F)c2)c2ccc(F)cc21` [Example 11] was tested, and the IC50 [1, 4] was 17.6 nM and the IC50 [2, 5] was 0.371 nM.
`CS(=O)(=O)n1cc(CCNCc2cccc(OCC(F)(F)C(F)F)c2)c2ccc(F)cc21` [Example 12] was tested, and the IC50 [1] was 9.51 nM and the IC50 [2] was 1.61 nM.
`CCS(=O)(=O)n1cc(CCNCc2cccc(OCC(F)(F)C(F)F)c2)c2ccc(F)cc21` [Example 13] showed an IC50 [1] of 11.7 nM and an IC50 [2] of 2.62 nM.
`CC(C)S(=O)(=O)n1cc(CCNCc2cccc(OCC(F)(F)C(F)F)c2)c2ccc(F)cc21` [Example 14] was tested, and the IC50 [1, 4] was 57.1 nM and the IC50 [2, 5] was 20 nM.
Compound `COc1ccc(S(=O)(=O)n2cc(CCNCc3cccc(OCC(F)(F)C(F)F)c3)c3ccc(F)cc32)cc1` [Example 15] has an IC50 [1, 4] of 187 nM and an IC50 [2, 5] of 10.2 nM.

From patent US8138219B2, “Tryptamine sulfonamides as 5-HT6 antagonists” (Merck Sharp & Dohme Corp., priority 2007, dated 2012)
